We go through 36 compounds from patent publication US9765035B2 (priority 2013, dated 2017).

The target of the assay is T1, Human CARM1 (PRMT4) (Homo sapiens, UniProt Q86X55).
T1 construct: Flag-CARM1-His; made in house; host or cells: HEK 293F cells (BacMam baculovirus)
T1 sequence (Q86X55 1-585 isoform Q86X55-1): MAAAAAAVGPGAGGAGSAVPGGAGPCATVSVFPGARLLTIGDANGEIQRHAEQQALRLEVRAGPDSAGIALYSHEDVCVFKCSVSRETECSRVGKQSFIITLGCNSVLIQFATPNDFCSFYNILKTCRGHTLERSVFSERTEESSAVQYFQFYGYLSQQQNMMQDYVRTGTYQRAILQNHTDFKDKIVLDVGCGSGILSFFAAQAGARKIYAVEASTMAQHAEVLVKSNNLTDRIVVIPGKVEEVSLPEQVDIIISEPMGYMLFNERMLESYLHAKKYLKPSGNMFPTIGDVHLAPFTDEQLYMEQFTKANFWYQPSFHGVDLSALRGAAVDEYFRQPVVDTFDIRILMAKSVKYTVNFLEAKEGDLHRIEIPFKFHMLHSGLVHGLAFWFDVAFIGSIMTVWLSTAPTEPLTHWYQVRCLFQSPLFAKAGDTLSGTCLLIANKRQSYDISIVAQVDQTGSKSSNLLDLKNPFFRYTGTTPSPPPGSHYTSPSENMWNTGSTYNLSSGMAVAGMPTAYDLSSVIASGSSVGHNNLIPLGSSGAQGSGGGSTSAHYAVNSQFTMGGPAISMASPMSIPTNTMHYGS
Put plainly: CARM1 Biochemical Assay. The text has this: General Materials. S-adenosylmethionine (SAM), S-adenosylhomocysteine (SAH), bicine, Tween20, dimethylsulfoxide (DMSO), bovine skin gelatin (BSG), sodium butyrate and Tris(2-carboxyethyl)phosphine hydrochloride solution (TCEP) were purchased from Sigma-Aldrich at the highest level of purity possible. ^3H-SAM was purchase from American Radiolabeled Chemicals with a specific activity of 80 Ci/mmol. 384-well streptavidin Flashplates were purchased from PerkinElmer.
Substrates. Peptide representative of human histone H3 residues 16-30 was synthesized with an N-terminal linker-affinity tag motif and a C-terminal amide cap by 21st Century Biochemicals. The peptide was purified by high-performance liquid chromatography (HPLC) to greater than 95% purity and confirmed by liquid chromatography mass spectrometry (LC-MS). The sequence was Biot-Ahx-[…]-amide and contained a monomethylated arginine at position 26 (SEQ ID NO.: 14).
Molecular Biology: Human CARM1 (PRMT4) (NM_199141.1) transcript clone was amplified from an HEK 293 cDNA library, incorporating a flanking 5′ sequence encoding a FLAG tag ([…]) (SEQ ID NO.:6) fused directly to Ala 2 of CARM1 and 3′ sequence encoding a hexa His sequence ([…]) (SEQ ID NO.: 15) fused directly to Ser 608. The gene sequence encoding isoform1 containing a deletion of amino acids 539-561 was amplified subsequently and subcloned into pFastBacMam (Viva Biotech).
Protein Expression. Recombinant baculovirus were generated according to Bac-to-Bac kit instructions (Life Technologies). […] Infections were carried out at 37° C. for 48 hours, harvested by centrifugation, and stored at −80° C. for purification.
Protein Purification. […] Column was washed with 500 mM NaCl in buffer A and Flag-CARM1-His was eluted with 200 ug/ml FLAG peptide in buffer A. Pooled fractions were dialyzed in 20 mM Tris, 150 mM NaCl, 5% glycerol and 1 mM DTT, pH 7.8. The purity of recovered protein was 94.
General Procedure for CARM1 Enzyme Assays on Peptide Substrates. The assays were all performed in a buffer consisting of 20 mM Bicine (pH=7.6), 1 mM TCEP, 0.005% BSG, and 0.002% Tween 20, prepared on the day of use. Compounds in 100% DMSO (1 ul) were spotted into a polypropylene 384-well V-bottom plates (Greiner) using a Platemate Plus outfitted with a 384-channel head (Thermo Scientific). DMSO (1 ul) was added to Columns 11, 12, 23, 24, rows A-H for the maximum signal control and 1 ul of SAH, a known product and inhibitor of CARM1, was added to columns 11, 12, 23, 24, rows I-P for the minimum signal control. A cocktail (40 ul) containing the CARM1 enzyme was added by Multidrop Combi (Thermo-Fisher). The compounds were allowed to incubate with CARM1 for 30 min at room temperature, then a cocktail (10 ul) containing ^3H-SAM and peptide was added to initiate the reaction (final volume=51 ul). The final concentrations of the components were as follows: CARM1 was 0.25 nM, ^3H-SAM was 30 nM, peptide was 250 nM, SAH in the minimum signal control wells was 1 mM, and the DMSO concentration was 2%. The assays were stopped by the addition of non-radiolabeled SAM (10 ul) to a final concentration of 300 uM, which dilutes the ^3H-SAM to a level where its incorporation into the peptide substrate is no longer detectable. 50 ul of the reaction in the 384-well polypropylene plate was then transferred to a 384-well Flashplate and the biotinylated peptides were allowed to bind to the streptavidin surface for at least 1 hour before being washed once with 0.1% Tween20 in a Biotek EL×405 plate washer. The plates were then read in a PerkinElmer TopCount plate reader to measure the quantity of ^3H-labeled peptide bound to the Flashplate surface, measured as disintegrations per minute (dpm) or alternatively, referred to as counts per minute (cpm).
Where dpm=disintegrations per minute, cmpd=signal in assay well, and min and max are the respective minimum and maximum signal controls. […]

The mark [1] stands for this setting: PRMT4 IC50, biochemical evaluation, CARM1 (PRMT4), peptide substrate.
[2] abbreviates: PRMT4 biochemical evaluation (numerical), single experiment or average of multiple experiments.

What is called IC50 is the point on the concentration scale where inhibition reaches its midpoint. As for `CNCCN(C)Cc1n[nH]c2ccc(OCc3cccc(C(F)(F)F)c3)cc12` [Compound 72], the IC50 is 0.101 to 1 µM under setting [1] and 0.892 µM under setting [2].

Take `CNCCN(C)Cc1n[nH]c2cccc(OCCC(C)C)c12` [Compound 31]: it took 0.423 µM to reach half-maximal inhibition under setting [2] (IC50).

As for `CNCCN(C)Cc1n[nH]c2ccc(C(C)C)cc12` [Compound 42, N^1-((5-isopropyl-1H-indazol-3-yl)methyl)-N^1,N^2-dimethylethane-1,2-diamine], the IC50 runs as follows: under setting [1], 1.01 to 3 µM; under setting [2], 4.05 µM.

Take `CNCCN(C)Cc1n[nH]c2ccc(Oc3ccccc3C)cc12` [Compound 60]: the IC50 is, setting by setting: under setting [1], 0.101 to 1 µM; under setting [2], 1.77 µM.

Under setting [2], `CNCCN(C)Cc1n[nH]c2ccc(OCc3ccn(C)n3)cc12` [Compound 20] registered an IC50 of 0.153 µM.

On to `CNCCN(C)Cc1n[nH]c2ccc(OC(C)C)cc12` [Compound 64], for which the 50% inhibitory concentration (IC50) was 1.01 to 3 µM under setting [1] and 1.96 µM under setting [2].

With `CNCCN(C)Cc1n[nH]c2ccc(OCc3cccc(C(C)=O)c3)cc12` [Compound 73], the IC50 under setting [1] was in the range of 0.101 to 1 µM and the IC50 under setting [2] was 4.59 µM.

As to `CNCCN(C)Cc1n[nH]c2ccc(Oc3ccc(OC)cc3)cc12` [Compound 59], the IC50 runs as follows: under setting [1], less than 0.1 µM; under setting [2], 0.313 µM.

`CNCCN(C)Cc1n[nH]c2ccc(Oc3ccc(Cl)cc3)cc12` [Compound 57]: the IC50 under setting [1] was in the range of 0.101 to 1 µM and the IC50 under setting [2] is 0.333 µM.

`CNCCN(C)Cc1n[nH]c2cccc(OCCC(O)CO)c12` (stereo not shown) [Compound 40] gave an IC50 under setting [1] of 3.01 to 10 µM and a 50% inhibitory concentration (IC50) under setting [2] of 2.11 µM.

Take `CCCOc1ccc2[nH]nc(CN(C)CCNC)c2c1` [Compound 65]: the IC50 under setting [1] is 0.101 to 1 µM and the IC50 under setting [2] came to 4.94 µM.

In the case of `CNCCN(C)Cc1n[nH]c2ccc(Oc3cccc(C#N)c3)cc12` [Compound 28], the IC50 was 1.01 to 3 µM under setting [1] and 0.26 µM under setting [2].

Compound `CNCCN(C)Cc1n[nH]c2ccc(Oc3cccc(OC)c3)cc12` [Compound 22] came in with an IC50 under setting [1] of 0.101 to 1 µM.

Take `CNCCN(C)Cc1nn(C(C)C)c2ccc(OCc3ccc(C#N)cc3)cc12` [Compound 62]: the half-maximal inhibitory concentration (IC50) by setting is: under setting [1], 1.01 to 3 µM; under setting [2], 0.364 µM.

In turn, `CNCCN(C)Cc1n[nH]c2ccc(OCc3ccc(C(C)=O)cc3)cc12` [Compound 23] had an IC50 under setting [1] of 0.101 to 1 µM.

For `CNCCN(C)Cc1n[nH]c2ccc(OC)cc12` [Compound 35], under setting [1], the IC50 was 3.01 to 10 µM.

For `CNCCN(C)Cc1n[nH]c2ccc(OCC3CCCC3)cc12` [Compound 52], the IC50 was 3.01 to 10 µM under setting [1] and greater than 10 µM under setting [2].

Consider `CNCCN(C)Cc1n[nH]c2ccc(C3=CCCCC3)cc12` [Compound 48], for which the IC50 runs as follows: under setting [1], 0.101 to 1 µM; under setting [2], 0.44 µM.

For the compound `CNCCN(C)Cc1n[nH]c2ccc(OCc3cccc(C(N)=O)c3)cc12` [Compound 66], the IC50 was 1.01 to 3 µM under setting [1] and 1.91 µM under setting [2].

With `CNCCN(C)Cc1nn(C)c2ccc(OCc3ccc(C#N)cc3)cc12` [Compound 32], the IC50 reads like this: under setting [1], 0.101 to 1 µM; under setting [2], 0.188 µM.

For the compound `CNCCN(C)Cc1n[nH]c2ccc(OC3CCOCC3)cc12` [Compound 29, N^1,N^2-dimethyl-N^1-((5-((tetrahydro-2H-pyran-4-yl)oxy)-1H-indazol-3-yl)methyl)ethane-1,2-diamine], the IC50 is 0.101 to 1 µM under setting [1] and 0.446 µM under setting [2].

Turning to `CNCCN(C)Cc1n[nH]c2ccc(OCc3ccc(C(N)=O)cc3)cc12` [Compound 69], the IC50 was 3.01 to 10 µM under setting [1] and 4.16 µM under setting [2].

Turning to `CNCCN(C)Cc1n[nH]c2ccc(Oc3ccccc3OC(C)C)cc12` [Compound 56], the 50% inhibitory concentration (IC50) was 0.101 to 1 µM under setting [1] and greater than 10 µM under setting [2].

Consider `CNCCN(C)Cc1c2cc(OCc3ccc(C#N)cc3)ccc2nn1C(C)C` [Compound 34], for which the half-maximal inhibitory concentration (IC50) runs as follows: under setting [1], 3.01 to 10 µM; under setting [2], 0.31 µM.

As to `CNCCN(C)Cc1n[nH]c2ccc(Oc3ccc(C#N)cc3)cc12` [Compound 37], the IC50 runs as follows: under setting [1], 1.01 to 3 µM; under setting [2], greater than 10 µM.

With `CNCCN(C)Cc1n[nH]c2ccc(OCC3CCCCC3)cc12` [Compound 54], the IC50 is, setting by setting: under setting [1], 3.01 to 10 µM; under setting [2], greater than 10 µM.

In the case of `CNCCN(C)Cc1n[nH]c2ccc(Oc3ccccc3C(F)(F)F)cc12` [Compound 49], the IC50 was 3.01 to 10 µM under setting [1] and 0.606 µM under setting [2].

`CNCCN(C)Cc1n[nH]c2ccc(N3CCC4(CCCCC4)CC3)cc12` [Compound 43, N^1-((5-(3-azaspiro[5.5]undecan-3-yl)-1H-indazol-3-yl)methyl)-N^1,N^2-dimethylethane-1,2-diamine]: the IC50 by setting is: under setting [1], 0.101 to 1 µM; under setting [2], 1.78 µM.

In the case of `CNCCN(C)Cc1n[nH]c2cccc(OCCCC(O)CO)c12` (stereo not shown) [Compound 41, 5-((3-((methyl(2-(methylamino)ethyl)amino)methyl)-1H-indazol-4-yl)oxy)pentane-1,2-diol], the IC50 is, setting by setting: under setting [1], 1.01 to 3 µM; under setting [2], 0.24 µM.

Compound `CNCCN(C)Cc1n[nH]c2ccc(Oc3cccc(OC(C)C)c3)cc12` [Compound 67] returned a half-maximal inhibitory concentration (IC50) under setting [1] of 3.01 to 10 µM and an IC50 under setting [2] of 0.683 µM.

On to `CNCCN(C)Cc1n[nH]c2ccc(N3CCCCC3)cc12` [Compound 46, N^1,N^2-dimethyl-N^1-((5-(piperidin-1-yl)-1H-indazol-3-yl)methyl)ethane-1,2-diamine], for which the IC50 under setting [1] was 0.101 to 1 µM and the IC50 under setting [2] was determined as 0.259 µM.

As for `CNCCN(C)Cc1n[nH]c2ccc(OCc3cccc(NC(C)=O)c3)cc12` [Compound 70], the IC50 reads like this: under setting [1], 0.101 to 1 µM; under setting [2], 3.7 µM.

Turning to `CNCCN(C)Cc1n[nH]c2ccc(Oc3ccc(C(F)(F)F)cc3)cc12` [Compound 39], the IC50 by setting is: under setting [1], 0.101 to 1 µM; under setting [2], 2.88 µM.

Take `CNCCN(C)Cc1n[nH]c2ccc(OC3CCOC3)cc12` (stereo not shown) [Compound 25, N^1,N^2-dimethyl-N^1-((5-((tetrahydrofuran-3-yl)oxy)-1H-indazol-3-yl)methyl)ethane-1,2-diamine]: the IC50 is, setting by setting: under setting [1], 0.101 to 1 µM; under setting [2], 0.932 µM.

In the case of `CNCCN(C)Cc1c2cc(OCc3ccc(C#N)cc3)ccc2nn1C1CCOCC1` [Compound 53], the IC50 was 3.01 to 10 µM under setting [1] and greater than 10 µM under setting [2].

In the case of `CNCCN(C)Cc1n[nH]c2ccc(Oc3cccc(C)c3)cc12` [Compound 26], the IC50 by setting is: under setting [1], 0.101 to 1 µM; under setting [2], 0.0351 µM.
